In patent US9610363B2, “Methods for inhibiting starvation of a cell” (PRESIDENT AND FELLOWS OF HARVARD COLLEGE, priority 2009, dated 2017):
“Also recorded” adds a separate entry of the source.

What was measured:
p*-mTOR = experiment: Retinal explant culture, p*-mTOR staining; type: cell-based, mice; conditions: wild type retinal explants, 4 hours culture, media with or without glucose
Description: Retinal explant cultures: The retina was dissected free from other ocular tissues in DMEM, and then incubated in conditions according to the chart in FIG. 10a. Regular DMEM was at 4.5 g/L glucose, low glucose was at 1 g/L, leucine was added at 200 μM and FCS at 10%. Incubation was performed for 4 h and the retinae were fixed and processed for antibody staining as described below.
(§1) Whole mount and section antibody staining were performed as previously (Punzo, C. & Cepko, C. L. (2008) Dev Dyn 237, 1034-42) described with the following modifications. Antibody staining for LAMP-2: Triton was replaced with 0.01% Saponin. Antibody staining for p*-mTOR and p*-S6: PBS was replaced by TBS in every step of the procedure. […] Time points analyzed for the rod and cone death kinetics (P: postnatal day; PW: postnatal week): PDE-β−/−: P10-P20 daily, PW3-10 weekly, PW 12, PW15, PW18, PW45; PDE-γ-KO: P10-P20 daily, PW3-PW10 weekly, PW15, PW25, PW45; Rho-KO: PW4-PW8 weekly, PW10, PW11, PW17, PW20, PW25, PW27, PW31, PW34, PW37, PW45, PW55, PW80; P23H: PW5, PW10, PW16, PW25, PW30, PW35, PW40, PW65, PW70, PW75, PW80, PW85.

HEK 293 cells = experiment: Expression of Fbp-1, Pck-1 and Pcx from the AAV vector (PCR, Western blot in HEK 293 cells); type: cell-based
Description: FIGS. 22A and B depict the mRNA expression and protein expression of gluconeogenesis genes. […] Gapdh is used as a loading control and water is used as a negative control.
Two ways were used to supply cells with more glucose. One was to increase intracellular glucose levels by providing cones with the means to synthesize their own glucose. Glucose synthesis, called gluconeogenesis, is carried out primarily in the liver, and to a limited extent in kidney and muscle. One might consider that the enzymes required for glucose synthesis could be those that break down glucose, during the process of glycolysis. However, some of the steps in glycolysis are energy producing and thus to reverse them requires a different process. Three enzymes must be supplied to allow the glucose to be synthesized, utilizing pyruvate or lactate as a starting point, and utilizing ATP and GTP to go uphill energetically in the synthesis. The first energy requiring step is catalyzed by Pcx (Pcx: Pyruvate Carboxylase) and utilizes ATP. A subsequent energy requiring step is catalyzed by Pck1: Phosphoenolpyruvate carboxykinase) and requires GTP. […] The endogenous expression of Fbp1, PCk1, and Pcx and the expression Fbp1, PCk1, and Pcx in the AAV vector (“construct”) was analyzed by PCR analysis (FIG. 22A) and Western blot analysis (FIG. 22B).

[1] = Behavioral assays (open field and step tests) in rd1 mutant mice; type: in vivo, mouse; conditions: infected rd1 animals
Text: FIG. 23 is a graph depicting the open field and step tests performed on the rd1 mutant mice in which the AAV vector was introduced.
This observation also confirms that outer segment shortening was due to insufficient glucose.

cones [2] = experiment: AAV2/5 gluconeogenesis vector tested in vivo in the rd1 mutant mouse, cone survival and morphology
cones [3] = experiment: Quantification of cone survival in PDE-β−/− mice (cone-lacZ staining of retinal flat mounts); type: in vivo; conditions: for cone survival after 4 weeks of treatment: PW7, insulin daily i.p. from P21, streptozotocin single i.p. injection at P21, vs uninjected control; for cone survival after 7 weeks of treatment: PW10, treatment from PW3, vs untreated
Description: (§2) Rapamycin, Streptozotocin and Insulin treatments were performed as follows. Rapamycin was diluted to 10 mg/ml in ethanol. The stock was diluted to 0.015 mg/ml in drinking water over a period of 2 weeks. A single intraperitoneal injection of 150 μl (12 mg/ml in 0.1M citric acid, ph4.5) of Streptozotocin was injected at postnatal day (P) 21. Insulin was injected intraperitoneally daily starting at P21. The concentration was increased weekly such that the first week, 10 U/kg body weight, the second 15 U/kg, the third 20 U/kg and fourth 30 U/kg body weight, were injected. In the treatment that lasted 7 weeks 30 U/kg body weight were injected for the remaining 3 weeks. Blood glucose levels were measured by collecting a drop of blood from the tail directly onto a test strip from TrueTrack smart system (CVS pharmacy). Eye bleeds were avoided due to the fact that cell survival in the retina was being assayed.
Quantification of cone survival was performed as follows. The colors of the bright light image were inverted and processed with Imaris software (Bitplane Inc) to calculate the percentage of blue surface area versus the total retinal surface area (see also FIG. 17). A minimum of 8 retinae per treatment, and for the control, were analyzed. P-values were calculated by the student's t-test.

HIF-1α = experiment: Immunofluorescent staining for HIF-1α in cones of PDE-β−/− mice; type: in vivo; conditions: PDE-β−/− mice treated for 4 weeks with insulin
Description: as §2, with “Eye bleeds were avoided due to the fact that cell survival in the retina was being assayed.” left out
as §1, with “modifications.” for “modifications. Antibody staining for LAMP-2: Triton was replaced with 0.01% Saponin. Antibody staining for p*-mTOR and p*-S6: PBS was replaced by TBS in every step of the procedure.”

photoreceptor = conditions: cited from earlier work

O=C[C@H](O)[C@@H](O)[C@H](O)[C@H](O)CO [glucose]
dorsal p*-mTOR in cones (p*-mTOR): abolished in the absence of glucose; also recorded: only detected when glucose was present

CMV promotor-Pcx-IRES-Fbp1-IRES-Pck1: AAV 2/5 virus carrying Pcx, Fbp1 and Pck1 on one transcript under the CMV promoter with IRES elements
mRNA expression of Fbp-1, Pck-1 and Pcx (HEK 293 cells; PCR analysis, Gapdh loading control): expresses these genes
protein expression of Fbp-1, Pck-1 and Pcx (HEK 293 cells; Western blot, transfected HEK 293 cells vs retina and HEK 293 control samples): upregulated
vision in two behavioral assays [1]: functional vision
morphology of the cone outer segments (cones [2]): remarkably similar to that of normal cones
cone survival (cones [2]; relative to controls): additional cone survival relative to controls

insulin
cone survival after 4 weeks of treatment (cones [3]): improved cone survival; also recorded: prolonged cone survival
cone survival after 7 weeks of treatment (cones [3]): did not show any significant improvement of cone survival; also recorded: no significant difference in cone survival
upregulation of HIF-1α in cones (HIF-1α): did not show the upregulation of HIF-1α; also recorded: prevented the upregulation of HIF-1α

CN(N=O)C(=O)N[C@H]1C(O)O[C@H](CO)[C@@H](O)[C@@H]1O (mixture of isomers) [streptozotocin]
cone survival after 4 weeks of treatment (cones [3]): decrease in cone survival
cone survival after 7 weeks of treatment (cones [3]): no significant difference in cone survival

B1: proinsulin (protein, UniProt P01326 25-110, looked up)
pro-form: FVKQHLCGSHLVEALYLVCGERGFFYTPMSRREVEDPQVAQLELGGGPGAGDLQTLALEVAQQKRGIVDQCCTSICSLYQLENYCN
modifications: pro-form
photoreceptor death (photoreceptor; constitutive expression, rd10 mouse model of RP): delays photoreceptor death, both of rods and cones
hyperglycemia (photoreceptor; mice treated with proinsulin): did not develop hyperglycemia
